Measurements as given in patent US8318812B2, “Therapeutic agents for the treatment of lymphoid malignancies” (The Ohio State University Research Foundation, priority 2006, dated 2012).

What was measured:
[1] = system: MEC, Ramos, Raji, 697 and RS4-11 B cell lines; experiment: Annexin V/PI viability by flow cytometry in B cell lines; type: cell-based, Human; details: Ramos cells; okadaic acid pretreatment
Procedure: Cells: Blood was obtained from patients with B-cell CLL with informed consent under a protocol approved by the hospital internal review board. All patients examined in this series had immunophenotypically defined CLL as outlined by the modified 96 National Cancer Institute criteria. B-CLL cells were isolated from freshly donated blood using ficoll density gradient centrifugation (Ficoll-Paque Plus, Amershan Biosciences, Piscataway, N.J.). Isolated mononuclear cells were incubated in RPMI 1640 media (Gibco/Invitrogen, Carlsbad, Calif.) supplemented with 10% heat-inactivated fetal bovine serum (FBS, Hyclone Laboratories, Logan, Utah), 2 mM L-glutamine (Invitrogen, Carlsbad, Calif.), and penicillin (100 U/mL)/streptomycin (100 μg/ml) [Sigma-Aldrich, St. Louis] at 37° C. in an atmosphere of 5% CO2. Freshly isolated B-CLL cells were used in all experiments described herein. […]
Analysis of cell viability and apoptosis: The cell viability was carried out by dual staining with Annexin V conjugated to flourescein-isothyocyanate (FITC) and Propidium iodide (PI) as described previously. Briefly, 1×10^6 cells were stained with Annexin V-FITC (BD Pharmingen) and Propidium iodide (BD Pharmingen) for 15 minutes in dark and analyzed by flow cytometry using a Beckman-Coulter EPICS XL cytometer (Beckman-Coulter, Miami, Fla.). […]

[2] = system: CD19+ B cells from CLL patients; type: cell-based; details: CLL cells
Procedure: Cells: Blood was obtained from patients with B-cell CLL with informed consent under a protocol approved by the hospital internal review board. All patients examined in this series had immunophenotypically defined CLL as outlined by the modified 96 National Cancer Institute criteria. B-CLL cells were isolated from freshly donated blood using ficoll density gradient centrifugation (Ficoll-Paque Plus, Amershan Biosciences, Piscataway, N.J.). Isolated mononuclear cells were incubated in RPMI 1640 media (Gibco/Invitrogen, Carlsbad, Calif.) supplemented with 10% heat-inactivated fetal bovine serum (FBS, Hyclone Laboratories, Logan, Utah), 2 mM L-glutamine (Invitrogen, Carlsbad, Calif.), and penicillin (100 U/mL)/streptomycin (100 μg/ml) [Sigma-Aldrich, St. Louis] at 37° C. in an atmosphere of 5% CO2. Freshly isolated B-CLL cells were used in all experiments described herein. Enriched B-lymphocyte fractions were prepared by using MACS negative selection kit by Miltenyi Biotech (Auburn, Calif.) or by “Rosette-Sep” kit from Stem Cell Technologies (Vancouver, British Columbia, Canada) according to the manufacturer's instructions. Human B-lymphocyte cell lines Raji and Ramos were obtained from ATCC (Manassas, Va.) and the MEC cells were obtained from German cell line bank (Braunschweig, Germany). The 697-neo and 697-Bcl-2 cell lines were kind gift from Dr. John Reed (Burnham Institute, La Jolla, Calif.). Cells were cultured at 37° C. in an atmosphere of 5% CO2 in RPMI 1640 media (Gibco/Invitrogen, Carlsbad, Calif.) supplemented with 10% fetal bovine serum (Gibco/Invitrogen).
Analysis of cell viability and apoptosis: The cell viability was carried out by dual staining with Annexin V conjugated to flourescein-isothyocyanate (FITC) and Propidium iodide (PI) as described previously. Briefly, 1×10^6 cells were stained with Annexin V-FITC (BD Pharmingen) and Propidium iodide (BD Pharmingen) for 15 minutes in dark and analyzed by flow cytometry using a Beckman-Coulter EPICS XL cytometer (Beckman-Coulter, Miami, Fla.). Apoptotic cells were identified as Annexin V and/or PI positive cells. Cells excluding both FITC and PI were considered to be viable. The Annexin V^−/PI^− cells are represented as % live cells normalized to untreated controls.
B-CLL cells are reported to be resistant to apoptosis in-vivo. To systematically analyze the effects of FTY720 on B-CLL cells, purified CD19^+ cells from B-CLL patients were incubated with increasing concentrations of FTY720 ranging from 0, 0.5, 1, 1.5, 2.5, 5 or 10 uM. The cytotoxic effects were independently determined by flow cytometry using propidium iodide (PI) and Annexin V conjugated FITC reagents. Populations excluding both PI and Annexin V-FITC staining were considered viable. […]

PP2A [3] = experiment: PP2A activity (malachite green phosphatase assay) in lysates of CLL cells; type: cell-based, Human; details: pretreatment with 5 nM okadaic acid
Procedure: (§1) PP2A Activity: The protein phosphatase activity of total cellular lysate was determined by measuring the generation of free PO4 from the threonine phosphopeptide using the malachite green-phosphate complex assay as described by the manufacturer (Upstate, Charlottesville, […].). Cell lysates were prepared in a low detergent lysis buffer (1% Nonidet P-40, 10 mM HEPES, 0.5M NaCl, 10% Glycerol, 1 mM PMSF, 5 mM Benzamidine, 10 μg/ml leupeptin). The phosphatase assay was performed in a PP2A-specific reaction buffer (Upstate) using 750 μM phosphopeptide substrate. After 30-min incubation at 30° C. malachite dye was added, and free phosphate was measured by optical density at 650 nm. To avoid variability among different immunoprecipitated samples, the phosphatase activities were normalized with the amount of PP2A immunoprecipitated, as detected and quantified by western blot analysis of each treatment group.
In order to determine if FTY720 induced activation of PP2A enzyme in CD19^+ B cells from CLL patients were treated with 10 uM FTY720 for 0, 1, 2, 3, 4 and 15 hrs and the PP2A activity in the lysates were quantified using a functional assay following immunoprecipitation of PP2A enzyme. As reported previously in other systems, FTY720 induced a consistent 2-3 fold increase in PP2A activation with the peak response observed at 4 hour post treatment (FIG. 6a). […] Similar phenomenon was also observed in Ramos B cell line. FTY720 induced activation of PP2A in Ramos cell line as early as 3 hours and this induced PP2A activity was inhibited by okadaic acid (FIG. 7a-b).

PP2A [4] = experiment: PP2A activity in lysates of Ramos B cell line; type: cell-based, Human
Procedure: as §1
In order to determine if FTY720 induced activation of PP2A enzyme in CD19^+ B cells from CLL patients were treated with 10 uM FTY720 for 0, 1, 2, 3, 4 and 15 hrs and the PP2A activity in the lysates were quantified using a functional assay following immunoprecipitation of PP2A enzyme. As reported previously in other systems, FTY720 induced a consistent 2-3 fold increase in PP2A activation with the peak response observed at 4 hour post treatment (FIG. 6a). […]

Mino cells = experiment: Annexin V/PI toxicity in Mino cells; type: cell-based, Human; details: 150 μM z-VAD-fmk
Procedure: Primary MCL cells were isolated from PBMC (with informed patient consent under a protocol approved by IRB) as described before. All the MCL patients were identified as outlined by the World Health Organization (WHO) classification. Human mantle cell lymphoma patient cell lines (Mino and Jeko) were obtained from Dr. Raymond Lai. Primary cells or MCL cell lines were incubated in RPMI 1640 media, supplemented with 10%-20% heat-inactivated fetal bovine serum, 2 mM L-glutamine and penicillin (100 U/mL)/streptomycin ([…]) at 37° C. in an atmosphere of 5% CO2. FTY720 was synthesized as previously described. Toxicity was determined by flow cytometry using Annexin-V-FITC and Propidium Iodide (PI) staining. Apoptotic cells were identified as Annexin-V+ and/or PI+ cells. Cells excluding both FITC and PI were considered viable. Western Blotting was performed as described previously using indicated antibodies. The PARP (Ab-2) and Caspase 9 antibodies were purchased from Oncogene/Calbiochem/EMD Biosciences (San Diego, Calif.). Cyclin D1, Akt, Actin, Mcl-1, p-ERK, ERK and Bcl-2 were obtained from Santa Cruz biotech (Santa Cruz, Calif.).
Several therapeutic agents, including fludarabine, chlorambucil, 2-chloro-2-deoxyadenosine and glucocorticoids, induce toxicity in B cell malignancies through activating caspases, the cysteine proteases of CED3/ICE family. Inhibition of these caspases results in abrogation of apoptosis mediated by the toxic stimuli. To determine if caspase activation is involved in FTY720-induced cytotoxicity in MCL, we pretreated Mino cells with 150 μM broad spectrum caspase inhibitor z-VAD-fmk. […] Activation of caspases results in cleavage of key cellular proteins including poly-ADP-ribose polymerase (PARP).

Compound	effect of okadaic acid on FTY720 induced apoptosis [1]	effect of okadaic acid on FTY720 induced cellular cytotoxicity ([2]; okadaic acid pretreatment)	inhibition of the FTY720 induced PP2A activation (PP2A [3]) [fold]	effect of okadaic acid on FTY720 induced PP2A activity (PP2A [4])	effect of z-VAD-fmk on FTY720 induced apoptosis ([2]; z-VAD-fmk 150 uM)	effect of z-VAD-fmk on fludarabine induced apoptosis ([2]; z-VAD-fmk 150 uM)	reduction in FTY720 induced apoptosis (Mino cells) [%]	reduction in fludarabine induced apoptosis (Mino cells) [%]
C=C1[C@@H](O)[C@@H]2O[C@]3(CC[C@H](/C=C/[C@@H](C)[C@@H]4CC(C)=C[C@@]5(O[C@H](C[C@@](C)(O)C(=O)O)CC[C@H]5O)O4)O3)CC[C@H]2O[C@@H]1[C@@H](O)C[C@H](C)[C@H]1O[C@@]2(CCCCO2)CC[C@H]1C [okadaic acid]	inhibition of FTY720 induced apoptosis	inhibition of FTY720 induced cellular cytotoxicity	≤ 3	inhibited	–	–	–	–
z-VAD-fmk	–	–	–	–	failed to prevent FTY720 induced apoptosis	effectively rescued fludarabine induced apoptosis	~50	~50
